For 40 compounds, mortality, Plant damage and inhibition results are on record in patent US5012004A, “Ether compounds and their production, and insecticidal and/or acaricidal compositions containing them” (priority 1987, dated 1991).

Where two headings read alike, the source gives them in different places.

Common to all, as to assay type: in vivo
Test [1] relates to eggs of diamondback moth (Plutella xylostella). Description: Ovicidal test: mortality of eggs of diamondback moth on dipped radish cotyledons (Test Example 1). The settings on record: 72 h, read-out: Mortality (%) of the eggs. The source says: Seven days after sowing, adults of diamondback moth (Plutella xylostella) were released to cotyledons of three radishes for oviposition (about 15 eggs per 1 cotyledon). […] After air-drying, the seedlings were taken into a cup made of polyethylene at the bottom of which were placed a filter paper.

Test [2] has as its system female carmine spider mites (Tetranychus cinnabarinus). Description: Plant damage by female carmine spider mites on kidney bean, pot spray plus soil application (Example 4). As to conditions: ca. 500 ppm, 15 ml spray per pot plus 2 ml to soil, eight days thereafter. The method, then: (§1) One of Compound Nos. 1 to 38 (10 parts), polyoxyethylene styrylphenyl ether (14 parts), calcium dodecylbenzenesulfonate (6 parts), xylene (35 parts) and dimethylformamide (35 parts) are well mixed to make an emulsifiable concentrate.
Adults of female carmine spider mites (Tetranychus cinnabarinus) were permitted to live on leaves (10 mites per leaf) of kidney bean seven days after sowing in the pots, and the mites were kept at 25° C. in a greenhouse. After 6 days, a 200 fold dilution (ca. 500 ppm) of the emulsifiable concentrate prepared according to Formulation Example 2 was sprayed over the pots placed on a turn table at a spray volume of 15 ml per pot, and also 2 ml of the dilution were applied to the soil in each pot. Eight days thereafter, the plant damage by the mites was observed and evaluated according to the following criteria:
______________________________________
-: no material damage to leaves
+: slight damage to leaves

Test [3] has as its system last instar larvae of common mosquito (Culex pipiens pallens). Briefly: Emergence inhibition of last instar larvae of common mosquito (Test Example 3). The settings on record: read-out: Rate of emergence inhibition (%). The method, then: as §1
An emulsifiable concentrate prepared according to Formulation Example 2 was diluted with water to make a concentration of 3.5 ppm. The dilution (100 ml) was charged in a plastic cup (each 180 ml volume), and twenty last instar larvae of common mosquito (Culex pipiens pallens) were released therein. Feeding was continued until emergence of all larvae, and the rate of emergence inhibition was observed.
The rate of emergence inhibition was determined according to the following criteria:
Rate of emergence inhibition […]
b: less than 90% to not less than 80% inhibition c: less than 80% inhibition

The subject of test [4] is adults of brown rice planthopper (Nilaparvata lugens). Briefly: Mortality of adults of brown rice planthopper on dipped rice stems (Test Example 2). The settings on record: 24 h, 200 fold dilution (ca. 500 ppm), one day thereafter, two replications.
Text: as §1
Stems of rice plants (about 12 cm in length) were dipped in a 200 fold dilution (ca. 500 ppm) of the emulsifiable concentrate prepared according to Formulation Example 2. After air-drying, the stems were taken into a test tube and 10 adults of brown rice planthopper (Nilaparvata lugens) were released therein.

Setting [5] is: 200 fold dilution (ca. 500 ppm), cotyledons dipped 30 seconds, three days thereafter, two replications.
[6] abbreviates: 3.5 ppm, twenty last instar larvae, until emergence.

Consider `FCCOc1ccc(OC2C=CCCC2)cc1` (stereo not shown) [compound 38], for which the mortality (as a rule, the share of the test organisms that died) at 500 µg/mL in test [1] (setting [5]) was 100%. For the same compound, in test [2], the Plant damage result was “-”. The like results for `O=C(c1ccccc1)c1ccc(OCCF)cc1` [compound 36] were, in that order, 100% and “-”. For the compound `FCCOc1ccc(OCCF)cc1` [compound 11], the mortality at 500 µg/mL in test [1] and in test [4] was 100% each time. In test [3], the inhibition (usually the change of the read-out against control, counted positive when it falls) at 3.5 ppm was more than 90%. Moreover, the Plant damage entry in test [2] is reported as “- ~ +”. With `FCCOc1ccc(COc2ccc(Oc3ccccc3)cc2)cc1` [compound 19], the mortality at 500 µg/mL in test [1] (setting [5]) was found to be 100%. Moreover, in test [3] (setting [6]), the inhibition at 3.5 ppm is more than 90%.

Regarding `FCCOc1ccc(Sc2ccccc2)cc1` [compound 33], the mortality at 500 µg/mL in test [1] (setting [5]) and in test [4] was 100% in each case. Further, the inhibition at 3.5 ppm in test [3] was more than 90%. The Plant damage result in test [2] is listed as “-”. On to `FCCOc1ccccc1CBr` [compound 14], for which the mortality at 500 µg/mL in test [1] is 100%.

In the case of `FCCOc1ccc(C(F)F)cc1` [Compound No. 10, 1-difluoromethyl-4-(2-fluoroethoxy)benzene], in test [1] (setting [5]), the mortality at 500 µg/mL came out at 100%. Regarding `FCCOc1ccc2oc3ccccc3c2c1` [Compound No. 35, 2-(2-fluoroethoxy)-dibenzofuran], in test [1] (setting [5]), the mortality at 500 µg/mL is 100%. In addition, the inhibition at 3.5 ppm in test [3] is more than 90%. The Plant damage entry in test [2] is on record as “-”. Turning to `FCCOc1ccc(-c2ccc(OCCF)cc2)cc1` [compound 12], the mortality at 500 µg/mL in test [1] turned out to be 100%.

Regarding `FCCOc1ccccc1` [Compound No. 1], in test [1], the mortality at 500 µg/mL was determined as 100%. As for `CCC(F)COc1ccc(Oc2ccccc2)cc1` (stereo not shown) [compound 28], the mortality at 500 µg/mL in test [1] (setting [5]) turned out to be 100%. Besides, in test [3] (setting [6]), the inhibition at 3.5 ppm was more than 90%. Regarding `FCCOc1ccc(Sc2ccc(OCCF)cc2)cc1` [compound 34], the mortality at 500 µg/mL in test [1] (setting [5]) came out at 100%. The inhibition at 3.5 ppm in test [3] was more than 90%. For the compound `CC(C)(c1ccc(OCCF)cc1)c1ccc(OCCF)cc1` [compound 32], the mortality at 500 µg/mL in test [1] (setting [5]) is 100%. For the same compound, in test [3] (setting [6]), the inhibition at 3.5 ppm was more than 90%. Consider `FCCOc1cccc(COc2ccc(Oc3ccccc3)cc2)c1` [compound 18], for which the mortality at 500 µg/mL in test [1] (setting [5]) stood at 100%. Further, the inhibition at 3.5 ppm in test [3] (setting [6]) was more than 90%. For the same compound, in test [2], the Plant damage result is “- ~ +”. On to `Cc1ccc(OCCF)cc1` [compound 8], for which, in test [1], the mortality at 500 µg/mL was 100%.

As to `Cc1cc(Cl)ccc1N=CN(C)C` [B, N'-(4-chloro-2-methylphenyl)-N,N-dimethylformamidine, reference compound], the Plant damage result in test [2] is on record as “+”. As for `FCCOc1ccc2c(c1)OCO2` [compound 13], in test [1] (setting [5]), the mortality at 500 µg/mL was 100%.

On to `CC(CF)Oc1ccc(Oc2ccccc2)cc1` (stereo not shown) [compound 26], for which the mortality at 500 µg/mL in test [1] (setting [5]) worked out at 100%. The inhibition at 3.5 ppm in test [3] (setting [6]) is more than 90%.

On to `Cc1cccc(OCCF)c1` [compound 7], for which the mortality at 500 µg/mL in test [1] was 100%.

With `FCCOc1ccc(CBr)cc1` [compound 16], in test [1], the mortality at 500 µg/mL amounted to 100%. As for `FCCOc1cccc(-c2ccccc2)c1` [compound 21], the mortality at 500 µg/mL in test [1] (setting [5]) amounted to 100%. Besides, the inhibition at 3.5 ppm in test [3] was more than 90%. In test [2], the Plant damage entry is “- ~ +”.

Turning to `CC(F)COc1ccc(Oc2ccccc2)cc1` (stereo not shown) [compound 27], in test [1] (setting [5]), the mortality at 500 µg/mL was found to be 100%. Further, the inhibition at 3.5 ppm in test [3] (setting [6]) was more than 90%. Regarding `FCCOc1cccc(CBr)c1` [compound 15], the mortality at 500 µg/mL in test [1] stood at 100%. On the same count and under the same terms, next, `FCCOc1ccc(F)cc1` [Compound No. 2]: 100%.

For the compound `FCCOc1ccc(Oc2ccccc2)cc1` [Compound No. 22, 1-(2-fluoroethoxy)-4-phenoxybenzene], the mortality at 500 µg/mL in test [1] (setting [5]) and in test [4] was 100% each time. Besides, the inhibition at 3.5 ppm in test [3] was more than 90%. In addition, in test [2], the Plant damage result is given as “- ~ +”. As to `Cc1ccccc1OCCF` [compound 6], the mortality at 500 µg/mL in test [1] was determined as 100%. Turning to `FCCOc1ccc(Oc2cccc(F)c2)cc1` [Compound No. 23, 1-(2-fluoroethoxy)-4-(3-fluorophenoxy)benzene], the mortality at 500 µg/mL in test [1] (setting [5]) and in test [4] was 100% in each case. For the same compound, the inhibition at 3.5 ppm in test [3] was more than 90%.

Regarding `Cc1cc(Cl)ccc1OCCF` [compound 9], the mortality at 500 µg/mL in test [1] is 100%. Further, the inhibition at 3.5 ppm in test [3] is more than 90%.

Turning to `FCCOc1ccc(OCc2ccccc2)cc1` [A, reference compound], the inhibition at 3.5 ppm in test [3] lay in the range of 80 to 90%. In addition, the mortality at 500 µg/mL in test [4] was determined as 0%. Consider `COc1cccc(OCCF)c1` [compound 5], for which the mortality at 500 µg/mL in test [1] worked out at 100%. For the compound `FCCOc1ccccc1COc1ccc(Oc2ccccc2)cc1` [compound 17], in test [1] (setting [5]), the mortality at 500 µg/mL turned out to be 100%. Also, the Plant damage result in test [2] is “-”. For the compound `FCCOc1ccc(Cc2ccccc2)cc1` [compound 30], the mortality at 500 µg/mL in test [1] (setting [5]) and in test [4] was 100% throughout. In test [2], the Plant damage result is on record as “- ~ +”. In the case of `FCCOc1ccccc1Cl` [Compound No. 3], the mortality at 500 µg/mL in test [1] and in test [4] was 100% throughout. As to `FCCOc1cccc(Cl)c1` [compound 4], the mortality at 500 µg/mL in test [1] was 100%. As to `O=C1c2ccccc2-c2ccc(OCCF)cc21` [compound 37], the mortality at 500 µg/mL in test [1] (setting [5]) was determined as 100%. Moreover, in test [2], the Plant damage result is “- ~ +”. `CC(C)(c1ccccc1)c1ccc(OCCF)cc1` [compound 31]: the mortality at 500 µg/mL in test [1] (setting [5]) was 100%. `FCCOc1ccccc1-c1ccccc1` [Compound No. 20, 1-(2-fluoroethoxy)-2-phenylbenzene]: the mortality at 500 µg/mL in test [1] (setting [5]) and in test [4] was 100% in each case. As to `FCCOc1ccc(Oc2cc(F)cc(F)c2)cc1` [compound 24], the mortality at 500 µg/mL in test [1] (setting [5]) turned out to be 100%. Besides, in test [3], the inhibition at 3.5 ppm is more than 90%. As for `FCCOc1cccc(Oc2ccccc2)c1` [compound 29], the values for the mortality at 500 µg/mL in test [1] (setting [5]) and in test [4] were 100% and 90%, respectively.

For `FCCCCOc1ccc(Oc2ccccc2)cc1` [compound 25], the mortality at 500 µg/mL in test [1] (setting [5]) stood at 100%. Moreover, in test [3] (setting [6]), the inhibition at 3.5 ppm is more than 90%.
